Results as given in patent US11739074B2, “Ras inhibitors” (Revolution Medicines, Inc., priority 2019, dated 2023).
Where two headings read alike, the source gives them in different places.

Assays:
[1] = tested on: AsPC-1 (K-Ras G12D); assay: Potency assay: pERK in AsPC-1 cells; assay type: cell-based; details: Homo sapiens
[2] = tested on: AsPC-1 (K-Ras G12D); assay: CellTiter-Glo cell viability assay, AsPC-1; assay type: cell-based; details: Homo sapiens, ASPC1, 120 h
Procedure, shortened: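 Test compounds were dispensed directly onto seeded cells, and on day 5 plates were brought to room temperature for about 30 minutes before CellTiter-Glo luminescence was read. Signals were expressed as percent of the mean DMSO control and fitted with a four-parameter logistic model.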

[3] = molecular target: KRAS G13D (Homo sapiens, UniProt P01116+P62937, G13D); assay: Ras-Raf disruption/FRET/MOA assay, KRAS G13D; assay type: biochemical
Sequence of KRAS G13D (P01116 1-169 isoform P01116-2 G13D limits assumed): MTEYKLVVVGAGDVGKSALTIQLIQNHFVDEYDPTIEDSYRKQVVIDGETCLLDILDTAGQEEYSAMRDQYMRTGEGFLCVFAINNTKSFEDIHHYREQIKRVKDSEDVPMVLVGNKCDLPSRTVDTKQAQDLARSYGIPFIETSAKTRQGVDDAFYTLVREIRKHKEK
Sequence of KRAS G13D (P62937 whole entry, the tested form may be a part): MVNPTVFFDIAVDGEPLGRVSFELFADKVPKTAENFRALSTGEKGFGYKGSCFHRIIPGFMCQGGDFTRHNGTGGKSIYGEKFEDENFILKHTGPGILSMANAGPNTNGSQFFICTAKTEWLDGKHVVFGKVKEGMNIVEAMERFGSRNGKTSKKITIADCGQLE
Text: (§1) Disruption of B-Raf Ras-Binding Domain (BRAF^RBD) Interaction with K-Ras by Compounds of the Invention (Also Called a FRET Assay or an MOA Assay)
(§2) Note—The following protocol describes a procedure for monitoring disruption of K-Ras G12C (GMP-PNP) binding to BRAF^RBD by a compound of the invention. This protocol may also be executed substituting other Ras proteins or nucleotides, such as K-Ras G12D and K-Ras G13D.
(§3) The purpose of this biochemical assay was to measure the ability of test compounds to facilitate ternary complex formation between a nucleotide-loaded K-Ras isoform and Cyclophilin A; the resulting ternary complex disrupts binding to a BRAF^RBD construct, inhibiting K-Ras signaling through a RAF effector.
(§4) In assay buffer containing 25 mM HEPES pH 7.3, 0.002% Tween20, 0.1% BSA, 100 mM NaCl and 5 mM MgCl2, tagless Cyclophilin A, His6-K-Ras-GMPPNP, and GST-BRAF^RBD were combined in a 384-well assay plate at final concentrations of 25 μM, 12.5 nM, and 50 nM, respectively. Compound was present in plate wells as a 10-point 3-fold dilution series starting at a final concentration of 30 μM. After incubation at 25° C. for 3 hours, a mixture of anti-His Eu-W1024 and anti-GST allophycocyanin was then added to assay sample wells at final concentrations of 10 nM and 50 nM, respectively, and the reaction incubated for an additional 1.5 hours. […] Compounds that facilitate disruption of a K-Ras:RAF complex were identified as those eliciting a decrease in the TR-FRET ratio relative to DMSO control wells.

[4] = molecular target: KRAS G12S (Homo sapiens, UniProt P01116+P62937, G12S); assay: Ras-Raf disruption/FRET/MOA assay, KRAS G12S; assay type: biochemical
Sequence of KRAS G12S (P01116 1-169 isoform P01116-2 G12S limits assumed): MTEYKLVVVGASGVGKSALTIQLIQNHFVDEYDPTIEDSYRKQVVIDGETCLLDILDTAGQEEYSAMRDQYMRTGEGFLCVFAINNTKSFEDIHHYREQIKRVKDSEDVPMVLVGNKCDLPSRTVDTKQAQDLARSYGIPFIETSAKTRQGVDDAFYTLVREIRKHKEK
Sequence of KRAS G12S (P62937 whole entry): as the sequence (P62937 whole entry, the tested form may be a part) above
Text: as §1, §2, §3, §4

[5] = molecular target: KRAS G13C (Homo sapiens, UniProt P01116+P62937, G13C); assay: Ras-Raf disruption/FRET/MOA assay, KRAS G13C; assay type: biochemical
Sequence of KRAS G13C (P01116 1-169 isoform P01116-2 G13C limits assumed): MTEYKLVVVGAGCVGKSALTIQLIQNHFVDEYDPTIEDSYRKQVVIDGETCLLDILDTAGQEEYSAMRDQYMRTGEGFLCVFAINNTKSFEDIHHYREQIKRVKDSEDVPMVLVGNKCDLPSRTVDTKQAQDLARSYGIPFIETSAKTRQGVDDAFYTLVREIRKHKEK
Sequence of KRAS G13C (P62937 whole entry): as the sequence (P62937 whole entry, the tested form may be a part) above
Text: as §1, §2, §3, §4

[6] = molecular target: KRAS G12V (Homo sapiens, UniProt P01116+P62937, G12V); assay: Ras-Raf disruption/FRET/MOA assay, KRAS G12V; assay type: biochemical
Sequence of KRAS G12V (P01116 1-169 isoform P01116-2 G12V limits assumed): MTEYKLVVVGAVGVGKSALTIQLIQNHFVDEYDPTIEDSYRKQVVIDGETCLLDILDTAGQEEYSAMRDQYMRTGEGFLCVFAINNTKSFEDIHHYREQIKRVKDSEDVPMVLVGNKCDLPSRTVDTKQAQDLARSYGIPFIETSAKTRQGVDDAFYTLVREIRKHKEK
Sequence of KRAS G12V (P62937 whole entry): as the sequence (P62937 whole entry, the tested form may be a part) above
Text: as §1, §2, §3, §4

[7] = molecular target: KRAS G12D (Homo sapiens, UniProt P01116+P62937, G12D); assay: Ras-Raf disruption/FRET/MOA assay, KRAS G12D; assay type: biochemical
Sequence of KRAS G12D (P01116 1-169 isoform P01116-2 G12D limits assumed): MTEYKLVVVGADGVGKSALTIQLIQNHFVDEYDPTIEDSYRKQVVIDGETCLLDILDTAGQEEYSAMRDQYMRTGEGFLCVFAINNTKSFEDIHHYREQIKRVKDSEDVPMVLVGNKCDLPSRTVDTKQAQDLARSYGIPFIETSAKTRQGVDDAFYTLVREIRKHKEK
Sequence of KRAS G12D (P62937 whole entry): as the sequence (P62937 whole entry, the tested form may be a part) above
Text: as §1, §2, §3, §4

[8] = molecular target: KRAS WT (Homo sapiens, UniProt P01116+P62937); assay: Ras-Raf disruption/FRET/MOA assay, KRAS WT; assay type: biochemical
Sequence of KRAS WT (P01116 1-169 isoform P01116-2 limits assumed): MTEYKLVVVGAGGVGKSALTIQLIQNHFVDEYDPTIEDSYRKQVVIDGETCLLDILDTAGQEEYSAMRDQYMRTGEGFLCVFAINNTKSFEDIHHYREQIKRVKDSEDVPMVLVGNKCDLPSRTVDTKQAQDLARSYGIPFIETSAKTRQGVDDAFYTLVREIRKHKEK
Sequence of KRAS WT (P62937 whole entry): as the sequence (P62937 whole entry, the tested form may be a part) above
Text: as §1, §2, §3, §4

[9] = molecular target: KRAS G12C (Homo sapiens, UniProt P01116+P62937, G12C); assay: Ras-Raf disruption/FRET/MOA assay, KRAS G12C; assay type: biochemical
Sequence of KRAS G12C (P01116 1-169 isoform P01116-2 G12C limits assumed): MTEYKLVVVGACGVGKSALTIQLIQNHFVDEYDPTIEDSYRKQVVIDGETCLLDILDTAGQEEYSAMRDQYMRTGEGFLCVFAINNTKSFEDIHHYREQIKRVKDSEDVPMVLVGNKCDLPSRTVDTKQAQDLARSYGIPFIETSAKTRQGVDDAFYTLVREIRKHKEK
Sequence of KRAS G12C (P62937 whole entry): as the sequence (P62937 whole entry, the tested form may be a part) above
Text: as §1, §2, §3, §4

[10] = molecular target: T1, NRAS G12C (Homo sapiens, UniProt P01111+P62937, G12C); assay: Ras-Raf disruption/FRET/MOA assay, NRAS G12C; assay type: biochemical
T1 construct: His6
T1 sequence (P01111 whole entry G12C): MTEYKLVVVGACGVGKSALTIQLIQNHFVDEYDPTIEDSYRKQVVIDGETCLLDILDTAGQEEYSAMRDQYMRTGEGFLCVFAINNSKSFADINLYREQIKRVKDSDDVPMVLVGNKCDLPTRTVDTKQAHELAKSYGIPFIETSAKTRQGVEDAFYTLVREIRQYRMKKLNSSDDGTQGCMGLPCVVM
T1 sequence (P62937 whole entry): as the sequence (P62937 whole entry, the tested form may be a part) above
Text: as §1, §2, §3, §4

[11] = ASPC1, read-out: pERK EC50 (AsPC-1 KRAS G12D)
[12] = read-out: AsPC-1 Cell Viability IC50
[13] = disruption of BRAF RBD binding, with Cyclophilin A, read-out: KRAS G13D FRET IC50
[14] = disruption of BRAF RBD binding, with Cyclophilin A, read-out: KRAS G12S FRET IC50
[15] = disruption of BRAF RBD binding, with Cyclophilin A, read-out: KRAS G13C FRET IC50
[16] = disruption of BRAF RBD binding, with Cyclophilin A, read-out: KRAS G12V FRET IC50
[17] = disruption of BRAF RBD binding, with Cyclophilin A, read-out: KRAS G12D FRET IC50
[18] = disruption of BRAF RBD binding, with Cyclophilin A, read-out: KRAS WT FRET IC50
[19] = disruption of BRAF RBD binding, with Cyclophilin A, read-out: KRAS G12C FRET IC50
[20] = NRAS G12C, read-out: NRAS G12C FRET data IC50
[21] = AsPC-1, K-Ras G12D, 5-day treatment, read-out: AsPC-1 Cell Viability IC50

Structure (SMILES) | EC50 [1, 11] [µM] | IC50 [2, 12] [µM] | IC50 [3, 13] [µM] | IC50 [4, 14] [µM] | IC50 [5, 15] [µM] | IC50 [6, 16] [µM] | IC50 [7, 17] [µM] | IC50 [8, 18] [µM] | IC50 [9, 19] [µM] | IC50 [10, 20] [µM] | IC50 [2, 21] [µM] | further results
CCn1c(-c2cnccc2COC)c2c3cc(ccc31)-c1cc(O)cc(c1)C[C@H](NC(=O)[C@H](C(C)C)N(C)C(=O)CN(C)C(=O)[C@@H]1[C@H](C)N1[S@@+]([O-])C(C)(C)C)C(=O)N1CCC[C@H](N1)C(=O)OCC(C)(C)C2 (stereo partly drawn) [Compound 54] | < 5 | 1 to 10 | 0.1 to 1 | 0.01 to 0.1 | 0.01 to 0.1 | 0.1 to 1 | 0.1 to 1 | 0.01 to 0.1 | 0.01 to 0.1 | 0.01 to 0.1 |  | 
CCn1c(-c2cnccc2COC)c2c3cc(ccc31)-c1cc(O)cc(c1)C[C@H](NC(=O)[C@H](C(C)C)N(C)C(=O)CN(C)C(=O)[C@@H]1CN1C(=O)OC)C(=O)N1CCC[C@H](N1)C(=O)OCC(C)(C)C2 [Compound 39] | < 5 | 1 to 10 | 0.1 to 1 | 0.01 to 0.1 | 0.01 to 0.1 | 0.1 to 1 | 0.1 to 1 | 0.1 to 1 | 0.01 to 0.1 | 0.01 to 0.1 |  | 
CCn1c(-c2cnccc2COC)c2c3cc(ccc31)-c1cc(O)cc(c1)C[C@H](NC(=O)[C@H](C(C)C)N(C)C(=O)CN(C)C(=O)[C@H]1CN1C(=O)OC)C(=O)N1CCC[C@H](N1)C(=O)OCC(C)(C)C2 [Example 38, methyl (2R)-2-((2-(((2S)-1-(((6^3S,4S)-1^1-ethyl-2^5-hydroxy-1^2-(4-(methoxymethyl)pyridin-3-yl)-10,10-dimethyl-5,7-dioxo-6^1,6^2,6^3,6^4,6^5,6^6-hexahydro-1^1H-8-oxa-1(5,3)-indola-6(1,3)-pyridazina-2(1,3)-benzenacycloundecaphane-4-yl)amino)-3-methyl-1-oxobutan-2-yl)(methyl)amino)-2-oxoethyl)(methyl)carbamoyl)aziridine-1-carboxylate] | < 5 | 1 to 10 | 0.1 to 1 | 0.01 to 0.1 | 0.01 to 0.1 | 0.1 to 1 | 0.1 to 1 | 0.1 to 1 | 0.01 to 0.1 | 0.01 to 0.1 |  | 
CCn1c(-c2cccnc2[C@H](C)OC)c2c3cc(ccc31)-c1cccc(c1)C[C@H](NC(=O)[C@H](C(C)C)N1CC[C@H](CN=C=NCCOC)C1)C(=O)N1CCC[C@H](N1)C(=O)OCC(C)(C)C2 [Compound 122] |  |  | > 10 | 1 to 10 | 0.1 to 1 | 1 to 10 | 1 to 10 | 1 to 10 | 0.1 to 1 | 0.1 to 1 | 1 to 10 | 
CCn1c(-c2cnccc2COC)c2c3cc(ccc31)-c1cc(O)cc(c1)C[C@H](NC(=O)[C@H](C(C)C)N(C)C(=O)CN(C)C(=O)[C@@H]1[C@H](C3CC3)N1[S@@+]([O-])C(C)(C)C)C(=O)N1CCC[C@H](N1)C(=O)OCC(C)(C)C2 (stereo partly drawn) [Compound 101] | < 5 | 1 to 10 | 0.1 to 1 | 0.1 to 1 | 0.1 to 1 | 0.1 to 1 | 0.1 to 1 | 0.1 to 1 | 0.01 to 0.1 | 0.01 to 0.1 |  | 
CCn1c(-c2cnccc2COC)c2c3cc(ccc31)-c1cc(O)cc(c1)C[C@H](NC(=O)[C@H](C(C)C)N(C)C(=O)CN(C)C(=O)[C@H]1N[C@H]1c1ccccc1)C(=O)N1CCC[C@H](N1)C(=O)OCC(C)(C)C2 [Compound 116] |  |  |  |  |  |  |  |  |  |  |  | IC50 ([2]; read-out: AsPC-1 Cell Viability IC50, AsPC-1, K-Ras G12D, 5-day treatment): > 10 µM; IC50 [3]: 0.1 to 1 µM; IC50 [4]: 0.1 to 1 µM; IC50 [5]: 0.1 to 1 µM; IC50 [6]: 0.1 to 1 µM; IC50 [7]: 1 to 10 µM; IC50 [8]: 0.01 to 0.1 µM; IC50 [9]: 0.1 to 1 µM; IC50 ([10]; NRAS G12C FRET data IC50, NRAS G12C): 0.1 to 1 µM
CCn1c(-c2cccnc2[C@H](C)OC)c2c3cc(ccc31)-c1cc(O)cc(c1)C[C@H](NC(=O)[C@H](C(C)C)N(C)C(=O)N1CCN(C(=O)[C@@H]3CN3)CC1)C(=O)N1CCC[C@H](N1)C(=O)OCC(C)(C)C2 (atropisomer, axis not shown) [Compound 197] |  |  | 0.01 to 0.1 | 0.01 to 0.1 | 0.01 to 0.1 | 0.01 to 0.1 | 0.1 to 1 | 0.01 to 0.1 | 0.01 to 0.1 | 0.01 to 0.1 | 1 to 10 | 
CCn1c(-c2cccnc2[C@H](C)OC)c2c3cc(ccc31)-c1cc(O)cc(c1)C[C@H](NC(=O)[C@H](C(C)C)N1CC[C@]3(CCCN(C(=O)[C@H]4CN4)C3)C1=O)C(=O)N1CCC[C@H](N1)C(=O)OCC(C)(C)C2 [Compound 200] |  |  | 0.1 to 1 | 0.01 to 0.1 | 0.01 to 0.1 | 0.01 to 0.1 | 0.1 to 1 | 0.1 to 1 | < 0.01 | < 0.01 | 1 to 10 | EC50 ([1]; ASPC1, AsPC-1 cells, K-Ras G12D, read-out: pERK EC50 (AsPC-1 KRAS G12D)): < 5 µM
CCn1c(-c2cnccc2COC)c2c3cc(ccc31)-c1cc(O)cc(c1)C[C@H](NC(=O)[C@H](C(C)C)N(C)C(=O)CN(C)C(=O)[C@H]1CN1C(C)=O)C(=O)N1CCC[C@H](N1)C(=O)OCC(C)(C)C2 [Example 34, (2R)-1-acetyl-N-(2-(((2S)-1-(((6^3S,4S)-1^1-ethyl-2^5-hydroxy-1^2-(4-(methoxymethyl)pyridin-3-yl)-10,10-dimethyl-5,7-dioxo-6^1,6^2,6^3,6^4,6^5,6^6-hexahydro-1^1H-8-oxa-1(5,3)-indola-6(1,3)-pyridazina-2(1,3)-benzenacycloundecaphane-4-yl)amino)-3-methyl-1-oxobutan-2-yl)(methyl)amino)-2-oxoethyl)-N-methylaziridine-2-carboxamide] | < 5 | 1 to 10 | 0.1 to 1 | 0.01 to 0.1 | 0.01 to 0.1 | 0.1 to 1 | 0.1 to 1 | 0.1 to 1 | 0.01 to 0.1 | 0.01 to 0.1 |  | 
CCn1c(-c2cccnc2[C@H](C)OC)c2c3cc(ccc31)-c1cc(O)cc(c1)C[C@H](NC(=O)[C@H](C(C)C)N1CCC3(CCN(C(=O)[C@@H]4CN4)CC3)C1=O)C(=O)N1CCC[C@H](N1)C(=O)OCC(C)(C)C2 [Compound 195] |  |  | 0.01 to 0.1 | 0.1 to 1 | < 0.01 | 0.1 to 1 | 1 to 10 | 0.01 to 0.1 | 0.01 to 0.1 | 0.01 to 0.1 | > 10 | 
CCn1c(-c2cnccc2COC)c2c3cc(ccc31)-c1cc(O)cc(c1)C[C@H](NC(=O)[C@H](C(C)C)N(C)C(=O)CN1C(=O)[C@@H]3[C@H](C1=O)N3Cc1ccccc1)C(=O)N1CCC[C@H](N1)C(=O)OCC(C)(C)C2 (stereo partly drawn) [Example 55, (2S)-2-(2-((1R,5S)-6-benzyl-2,4-dioxo-3,6-diazabicyclo[3.1.0]hexan-3-yl)-N-methylacetamido)-N-((6^3S,4S)-1^1-ethyl-2^5-hydroxy-1^2-(4-(methoxymethyl)pyridin-3-yl)-10,10-dimethyl-5,7-dioxo-6^1,6^2,6^3,6^4,6^5,6^6-hexahydro-1^1H-8-oxa-1(5,3)-indola-6(1,3)-pyridazina-2(1,3)-benzenacycloundecaphane-4-yl)-3-methylbutanamide] |  |  | 1 to 10 | 0.1 to 1 | 0.1 to 1 | 0.1 to 1 | > 10 | 1 to 10 | 0.1 to 1 | 0.1 to 1 | > 10 | 
